Assays:
ULK1 [1] = target: T1, ULK1 (Homo sapiens, UniProt O75385); test: ADP-Glo kinase assay; assay type: biochemical
T1 sequence (O75385 1-1050): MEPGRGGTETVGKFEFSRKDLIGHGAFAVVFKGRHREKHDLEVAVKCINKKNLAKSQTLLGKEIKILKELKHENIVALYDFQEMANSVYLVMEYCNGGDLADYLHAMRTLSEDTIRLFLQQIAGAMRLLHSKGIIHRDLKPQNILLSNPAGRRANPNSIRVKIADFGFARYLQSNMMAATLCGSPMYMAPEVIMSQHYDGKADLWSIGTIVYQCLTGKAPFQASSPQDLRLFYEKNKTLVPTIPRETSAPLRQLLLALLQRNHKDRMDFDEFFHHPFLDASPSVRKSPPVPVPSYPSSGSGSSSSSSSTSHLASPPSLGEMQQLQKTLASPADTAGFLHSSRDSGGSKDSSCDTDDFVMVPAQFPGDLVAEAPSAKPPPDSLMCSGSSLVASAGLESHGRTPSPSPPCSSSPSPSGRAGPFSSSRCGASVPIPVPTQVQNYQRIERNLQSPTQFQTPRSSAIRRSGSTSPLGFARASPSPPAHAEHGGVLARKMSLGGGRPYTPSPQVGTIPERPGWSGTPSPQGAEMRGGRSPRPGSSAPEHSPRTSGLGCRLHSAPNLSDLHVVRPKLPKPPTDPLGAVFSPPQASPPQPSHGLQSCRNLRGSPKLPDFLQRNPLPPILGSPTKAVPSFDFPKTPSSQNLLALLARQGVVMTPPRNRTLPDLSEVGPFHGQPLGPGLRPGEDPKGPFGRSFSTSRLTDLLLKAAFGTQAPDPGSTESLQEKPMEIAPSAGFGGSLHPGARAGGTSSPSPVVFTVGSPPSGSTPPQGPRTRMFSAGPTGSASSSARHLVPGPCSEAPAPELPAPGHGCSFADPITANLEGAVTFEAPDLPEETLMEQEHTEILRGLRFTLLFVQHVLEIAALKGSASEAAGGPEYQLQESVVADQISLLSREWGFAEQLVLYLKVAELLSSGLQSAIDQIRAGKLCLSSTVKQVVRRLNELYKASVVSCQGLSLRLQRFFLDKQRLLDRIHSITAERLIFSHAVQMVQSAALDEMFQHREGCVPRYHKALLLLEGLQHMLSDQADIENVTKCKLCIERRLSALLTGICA

kinase domain of ULK1 = target: T2, kinase domain of ULK1 (Homo sapiens, UniProt O75385); conditions: binder
T2 sequence (O75385 1-283 limits assumed): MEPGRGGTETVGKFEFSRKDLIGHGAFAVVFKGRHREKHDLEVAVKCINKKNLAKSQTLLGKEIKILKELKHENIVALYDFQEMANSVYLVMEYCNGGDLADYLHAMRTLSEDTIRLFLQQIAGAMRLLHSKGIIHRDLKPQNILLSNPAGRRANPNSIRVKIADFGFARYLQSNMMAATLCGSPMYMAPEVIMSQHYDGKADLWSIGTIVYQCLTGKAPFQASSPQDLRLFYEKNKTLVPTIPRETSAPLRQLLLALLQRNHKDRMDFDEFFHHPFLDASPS

ULK2 = target: T3, ULK2 (Homo sapiens, UniProt Q8IYT8); test: biochemical
T3 sequence (Q8IYT8 1-1036): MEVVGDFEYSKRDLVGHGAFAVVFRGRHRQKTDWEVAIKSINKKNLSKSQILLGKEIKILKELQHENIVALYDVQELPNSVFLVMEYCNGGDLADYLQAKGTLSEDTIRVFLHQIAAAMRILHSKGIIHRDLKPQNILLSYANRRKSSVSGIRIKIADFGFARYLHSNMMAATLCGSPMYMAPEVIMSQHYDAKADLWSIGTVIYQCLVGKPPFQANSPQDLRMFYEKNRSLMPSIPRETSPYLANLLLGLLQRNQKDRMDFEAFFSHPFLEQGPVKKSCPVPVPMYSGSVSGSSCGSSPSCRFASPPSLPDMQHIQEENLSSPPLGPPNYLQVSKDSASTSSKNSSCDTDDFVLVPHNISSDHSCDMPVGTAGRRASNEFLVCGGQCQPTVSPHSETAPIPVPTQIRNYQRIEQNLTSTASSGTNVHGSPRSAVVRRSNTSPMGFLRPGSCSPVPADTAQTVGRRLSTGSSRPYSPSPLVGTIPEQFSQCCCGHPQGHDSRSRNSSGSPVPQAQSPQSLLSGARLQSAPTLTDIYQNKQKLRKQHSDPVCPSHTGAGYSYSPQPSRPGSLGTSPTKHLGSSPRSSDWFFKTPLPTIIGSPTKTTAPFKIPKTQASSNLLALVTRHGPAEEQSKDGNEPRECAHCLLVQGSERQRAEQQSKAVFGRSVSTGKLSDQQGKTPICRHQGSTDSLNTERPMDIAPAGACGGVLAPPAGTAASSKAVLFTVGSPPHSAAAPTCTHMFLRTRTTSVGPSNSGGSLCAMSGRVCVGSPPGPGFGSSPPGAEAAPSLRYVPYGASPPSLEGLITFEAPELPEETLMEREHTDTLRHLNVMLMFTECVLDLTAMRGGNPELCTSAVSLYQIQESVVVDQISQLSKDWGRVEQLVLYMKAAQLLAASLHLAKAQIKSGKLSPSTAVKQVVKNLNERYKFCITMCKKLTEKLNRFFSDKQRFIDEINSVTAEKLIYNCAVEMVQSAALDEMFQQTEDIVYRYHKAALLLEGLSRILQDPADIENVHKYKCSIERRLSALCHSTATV

kinase domain of ULK2 = target: T4, kinase domain of ULK2 (Homo sapiens, UniProt Q8IYT8); conditions: binder
T4 sequence (Q8IYT8 1-276 limits assumed): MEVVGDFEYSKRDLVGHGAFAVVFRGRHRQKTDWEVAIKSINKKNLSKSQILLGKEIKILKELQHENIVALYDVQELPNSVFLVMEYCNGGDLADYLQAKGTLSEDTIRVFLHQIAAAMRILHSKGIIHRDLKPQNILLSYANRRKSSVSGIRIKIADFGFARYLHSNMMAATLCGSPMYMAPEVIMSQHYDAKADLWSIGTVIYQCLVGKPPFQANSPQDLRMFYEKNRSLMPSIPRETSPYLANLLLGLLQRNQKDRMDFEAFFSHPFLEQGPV

ULK1 [2] = target: T1, ULK1; test: biochemical
ULK1 (NanoBRET) = target: T5, ULK1 (NanoBRET) (Homo sapiens, UniProt O75385); test: NanoBRET cellular target engagement; assay type: cell-based
T5 sequence (O75385 1-1050): T1 sequence (O75385 1-1050)

IC50 (ULK1 [1]) [nM] | ULK1 PTS (ºC) (kinase domain of ULK1) [°C] | IC50 (ULK2) [nM] | ULK2 PTS (ºC) (kinase domain of ULK2) [°C] | IC50 (ULK1 [2]) [nM] | IC50 (ULK1 (NanoBRET)) [nM] | Compound
141 | 5.60 ± 0.23 | > 3000 | 4.13 ± 0.02 | – | – | CNC(=O)c1ccccc1Nc1nc(Nc2ccc(N3CCOCC3)cc2OC)ncc1Br [6b, 2-(5-Bromo-2-(2-methoxy-4-morpholinophenylamino)pyrimidin-4-ylamino)-N-methylbenzamide]
62 | 6.55 ± 0.12 | 1340 ± 198 | 6.50 ± 0.09 | – | – | CNC(=O)c1ccccc1Nc1nc(Nc2ccc(N3CCOCC3)cc2OC)ncc1C(F)(F)F [6c, 2-(2-(2-Methoxy-4-morpholinophenylamino)-5-(trifluoromethyl)pyrimidin-4-ylamino)-N-methylbenzamide]
21 | 0.20 ± 0.13 | > 3000 | 0.48 ± 0.06 | – | – | CNC(=O)c1ccccc1Nc1nc(Nc2ccc3c(c2)CC(=O)N3)ncc1Cl [6f, 2-(5-Chloro-2-(2-oxoindolin-5-ylamino)pyrimidin-4-ylamino)-N-methylbenzamide]
– | 6.78 ± 0.19 | > 3000 | 5.86 ± 0.12 | 94 ± 43 | – | CNC(=O)c1ccccc1Nc1nc(Nc2ccc3[nH]ccc3c2)ncc1Cl [6g, 2-(2-(1H-indol-5-ylamino)-5-chloropyrimidin-4-ylamino)-N-methylbenzamide]
– | 8.08 ± 0.53 | > 3000 | 7.49 ± 0.46 | 6 ± 1 | – | CNC(=O)c1ccccc1Nc1nc(Nc2ccc3[nH]ccc3c2)ncc1Br [6h, 2-(2-(1H-indol-5-ylamino)-5-bromopyrimidin-4-ylamino)-N-methylbenzamide]
– | 3.37 ± 0.38 | > 3000 | 2.45 ± 0.20 | 2700 ± 1780 | – | CNC(=O)c1ccccc1Nc1nc(Nc2cc3c(cc2C)OCO3)ncc1Cl [6i, 2-(5-Chloro-2-(6-methylbenzo[d][1,3]dioxol-5-ylamino)pyrimidin-4-ylamino)-N-methylbenzamide]
218 | 6.05 ± 0.13 | > 3000 | 4.43 ± 0.33 | – | – | CNC(=O)c1ccccc1Nc1nc(Nc2ccc3c(c2)OCCO3)ncc1Cl [6j, 2-(5-Chloro-2-(2,3-dihydrobenzo[b][1,4]dioxin-6-ylamino)pyrimidin-4-ylamino)-N-methylbenzamide]
292 | 5.75 ± 0.12 | 893 ± 454 | 3.38 ± 0.14 | – | – | CNC(=O)c1ccccc1Nc1nc(Nc2cc(OC)ccc2C)ncc1Cl [6k, 2-(5-Chloro-2-(5-methoxy-2-methylphenylamino)pyrimidin-4-ylamino)-N-methylbenzamide]
38 | 8.90 ± 0.17 | 1960 ± 101 | 7.08 ± 0.25 | – | – | CNC(=O)c1ccccc1Nc1nc(Nc2cc(OC)ccc2C)ncc1C(F)(F)F [6l, 2-(2-(5-Methoxy-2-methylphenylamino)-5-(trifluoromethyl)pyrimidin-4-ylamino)-N-methylbenzamide]
32 | 6.78 ± 0.13 | > 3000 | 4.28 ± 0.19 | – | – | CNC(=O)c1ccccc1Nc1nc(Nc2cc(OC)ccc2C)ncc1Br [6m, 2-(5-Bromo-2-(5-methoxy-2-methylphenylamino)pyrimidin-4-ylamino)-N-methylbenzamide]
– | 6.53 ± 0.87 | > 3000 | 1.38 ± 0.33 | 50 ± 25 | – | CNC(=O)c1ccccc1Nc1nc(Nc2cccc(OC)c2)ncc1Cl [6n, 2-(5-Chloro-2-(3-methoxyphenylamino)pyrimidin-4-ylamino)-N-methylbenzamide]
8 | 14.25 ± 0.11 | – | 12.01 ± 0.05 | – | 4.05 | CNC(=O)c1ccccc1Nc1nc(Nc2cc(OC)c(OC)c(OC)c2)ncc1Cl [6o, 2-(5-Chloro-2-(3,4,5-trimethoxyphenylamino)pyrimidin-4-ylamino)-N-methylbenzamide]
– | 17.28 ± 0.06 | 19 ± 3 | 16.70 ± 0.05 | 15 ± 1 | 17 | CNC(=O)c1ccccc1Nc1nc(Nc2cc(N3CCOCC3)cc(N3CCOCC3)c2)ncc1C(F)(F)F [6r, 2-(2-(3,5-dimorpholinophenylamino)-5-(trifluoromethyl)pyrimidin-4-ylamino)-N-methylbenzamide]
– | 13.28 ± 0.40 | 180 ± 9 | 11.50 ± 0.27 | 38 ± 4 | – | CNC(=O)c1ccccc1Nc1nc(Nc2cc(N3CCOCC3)cc(N3CCOCC3)c2)ncc1Cl [6s, 2-(5-Chloro-2-(3,5-dimorpholinophenylamino)pyrimidin-4-ylamino)-N-methylbenzamide]
– | 16.83 ± 0.12 | 59 ± 6 | 16.23 ± 0.15 | 8 ± 1 | – | CNC(=O)c1ccccc1Nc1nc(Nc2cc(N3CCOCC3)cc(N3CCOCC3)c2)ncc1Br [6t, 2-(5-Bromo-2-(3,5-dimorpholinophenylamino)pyrimidin-4-ylamino)-N-methylbenzamide]
– | – | – | – | – | 47 ± 11 | FC(F)(F)c1cnc(Nc2ccc3c(c2)CCNC3)nc1NC1CC1 [SBP-5147, reference compound]
– | – | – | – | – | 167 ± 31 | O=C1CCc2cc(Nc3ncc(C(F)(F)F)c(NC4CC4)n3)ccc2N1 [SBP-7501, reference compound]
– | – | – | – | – | 328 ± 43 | SBP-7455 [reference compound]

Reference: article doi:10.1101/2025.10.14.682402v1 (biorxiv, 2025)
